Where “and” joins values, the source holds several entries; their conditions need not be identical. Identical values can stand only once. Like-named read-outs stand apart in the source and are kept apart here.
Tests used:
wild type HIV-1 [1] = assay: Inhibition of wild type virus replication in MT-2 cells or PBMCs; format: cell-based; details: Human immunodeficiency virus 1, MT2; wild type laboratory and clinical isolates of HIV-1
Text: The target concentration is that concentration where most mutant variants tested are suppressed by 90% or more.

[2] = tested on: mouse primary bone marrow cells; assay: Mitochondrial toxicity in primary bone marrow cells; format: cell-based; details: concentrations <1 mM
[3] = Food effect, fed versus fasted crossover (Cohort 4); details: for AUC / AUC(0-inf) / CL/F / Cmax / half-life / Tmax: human, plasma, oral, 100 mg, PART B; for AUC: AUC(0-τ); for CL/F: CLtot/F; for half-life: t1/2 λz
[4] = pbmc
[5] = Safety and tolerability of single oral doses
Text: Total of 18 HIV-1 infected males, aged 18-55 years, enrolled, 6 per treatment cohort.

wild type HIV-1 [6] = details: read-out: in vitro EC90 for wild type virus; cited from earlier work
[7] = Pharmacokinetics in the rhesus monkey; format: in vivo
[8] = tested on: AZT/3TC-resistant HIV-1 recombinant viruses; assay: microbe, parasite or virus in culture; format: cell-based
Experimental: A panel of 22 viruses was constructed in the HXB2 background using the Protease and RT sequences from clinical isolates to determine Virco Profiling against recombinant clinical isolates (see FIGS. 7a and 7b). Viruses contained 2 to 17 mutations in RT frequently associated with nucleoside resistance, including: M184V, M41L, D67N, T215Y. IC50 values were determined using a high through-put reporter virus assay.

in vivo = details: dog, 15 mg/kg
plasma HIV-1 RNA = format: in vivo; details: for reduction of viral load: 48 hours
Experimental: The study consisted of a double-blind, randomized, placebo-controlled, three-period crossover, dose escalation design in HIV-infected male subjects. Five dose levels (10, 25, 50, 100, and 200 mg) were administered in three cohort studies. Seven days elapsed between the end of one cohort and the start of the next dosing period.

[9] = human, in vivo
[10] = 100 MG FED, coated tablet after high fat meal

With Nc1nc(=O)n(C2C=CC(CO)O2)cc1F [β-D-D4FC, β-D-2′,3′-Didehydro-2′,3′-dideoxy-5-fluorocytidine] the IC90 (wild type HIV-1 [1]) was 0.855 ± 0.4 µM, the mitochondrial toxicity [2] was “not associated with mitochondrial toxicity” and the “Cmax and AUC values in the fed regimen as fraction of the fasted regimen” value ([3]; 100 mg coated tablets, high fat meal) was “less than 1/10”. It also gave an AUC ([3]; 100 MG FASTED, coated tablet) of 6.11 µg·h/mL, an AUC [3, 10] of 0.542 µg·h/mL and an AUC(0-inf) ([3]; 100 MG FASTED, coated tablet) of 6.17 µg·h/mL. It also gave an AUC(0-inf) [3, 10] of 0.643 µg·h/mL, a CL/F ([3]; 100 MG FASTED, coated tablet) of 478 mL/min and a CL/F [3, 10] of 3380 mL/min. The Cmax ([3]; 100 MG FASTED, coated tablet) was 1.16 µg/mL, the Cmax [3, 10] was 0.09 µg/mL and the half-life ([3]; 100 MG FASTED, coated tablet) was 8.61 h. The half-life [3, 10] was 4.38 h, the Tmax ([3]; 100 MG FASTED, coated tablet) was 1.83 h and the Tmax [3, 10] was 2.5 h. The Intracellular half life [4] was 13 to 17 h, the serious adverse events ([5]; any dose level) was “no serious adverse events” and the “tolerability of single doses” value ([5]; in vivo) was “well tolerated”. The EC90 (wild type HIV-1 [6]) was 0.9 µM and < 1 µM, the plasma half-life ([7]; compared with AZT and 3TC) was “longer than either AZT or 3TC” and the clearance of parent ([7]; rhesus monkey, in vivo) was “low clearance”. The “target value of parent compound for >90% suppression” value ([8]; AZT, 3TC and co-resistant variants) was 5 µM, the IC90 ([8]; Human immunodeficiency virus 1, read-out: Average IC90 for AZT/3TC-R virus) was 5.5 µM and the “activity against multi-drug resistant strains” value ([8]; Q151M or D69S insertions plus at least 5 additional mutations) was “only weakly active”. The “suppression of most mutant variants tested” value ([8]; at 5 μM in vitro) was ≥ 90%, the “clinically significant HIV mutant strains inhibited” value ([8]; including AZT and 3TC resistant variants) was “more than 80%” and the reduction in activity ([8]; recombinant viruses with as many as 10 mutations incl. M41L, M184V, D67N, L74V, K70R, T215Y or K219Q) was “less than 5 fold”. For the same molecule, the AUC at 12 m (in vivo; female) was 431 µM·h, the Cmax at 12 m (in vivo; female) was 69 µM and the AUC at 12 m (in vivo; male) was 401 µM·h. The Cmax at 12 m (in vivo; male) was 74 µM, the “drop in viral load, subject with mutant virus L41+N103+C181+W210+D215” value (plasma HIV-1 RNA; 10 mg) was 0.61 log10 and the “reduction of viral load” value (plasma HIV-1 RNA; 10 mg dose) was 0.42±0.2 log10 and 0.42 log10. For the same molecule, the “Change in Plasma HIV-1 RNA” value (plasma HIV-1 RNA; 10 mg, 12 h) was 0.05 ± 0.09 log10, the “Change in Plasma HIV-1 RNA” value (plasma HIV-1 RNA; 10 mg, 24 h) was −0.12 ± 0.14 log10 and the “Change in Plasma HIV-1 RNA” value (plasma HIV-1 RNA; 10 mg, 48 h) was −0.42 ± 0.20 log10. For the same molecule, the “drop in viral load, subject with mutant virus L41+N103+C181+W210+D215” value (plasma HIV-1 RNA; 25 mg) was 0.43 log10, the “Change in Plasma HIV-1 RNA” value (plasma HIV-1 RNA; 25 mg, 12 h) was 0.03 ± 0.09 log10 and the “Change in Plasma HIV-1 RNA” value (plasma HIV-1 RNA; 25 mg, 24 h) was −0.13 ± 0.10 log10. The “Change in Plasma HIV-1 RNA” value (plasma HIV-1 RNA; 25 mg, 48 h) was −0.34 ± 0.26 log10, the “Change in Plasma HIV-1 RNA” value (plasma HIV-1 RNA; 100 mg, 12 h) was −0.03 ± 0.08 log10 and the “Change in Plasma HIV-1 RNA” value (plasma HIV-1 RNA; 100 mg, 24 h) was −0.15 ± 0.14 log10. For the same molecule, the “Change in Plasma HIV-1 RNA” value (plasma HIV-1 RNA; 100 mg, 48 h) was −0.44 ± 0.17 log10, the “reduction of viral load” value (plasma HIV-1 RNA; 100 mg) was 0.44±0.17 and the “Change in Plasma HIV-1 RNA” value (plasma HIV-1 RNA; 200 mg, 12 h) was −0.02 ± 0.24 log10. The “Change in Plasma HIV-1 RNA” value (plasma HIV-1 RNA; 200 mg, 24 h) was −0.06 ± 0.22 log10, the “Change in Plasma HIV-1 RNA” value (plasma HIV-1 RNA; 200 mg, 48 h) was −0.27 ± 0.28 log10 and the “Change in Plasma HIV-1 RNA” value (plasma HIV-1 RNA; 50s mg (solution), 12 h) was 0.00 ± 0.00 log10. The “Change in Plasma HIV-1 RNA” value (plasma HIV-1 RNA; 50s mg (solution), 24 h) was −0.11 ± 0.07 log10, the “Change in Plasma HIV-1 RNA” value (plasma HIV-1 RNA; 50s mg (solution), 48 h) was −0.44 ± 0.02 log10 and the “Change in Plasma HIV-1 RNA” value (plasma HIV-1 RNA; 50t mg (tablet), 12 h) was 0.05 ± 0.07 log10. The “Change in Plasma HIV-1 RNA” value (plasma HIV-1 RNA; 50t mg (tablet), 24 h) was −0.08 ± 0.07 log10, the “Change in Plasma HIV-1 RNA” value (plasma HIV-1 RNA; 50t mg (tablet), 48 h) was −0.46 ± 0.25 log10 and the “average reduction of viral load” value (plasma HIV-1 RNA; 24 hour time point) was 0.11±0.11. The “mean reduction of viral load after a single oral dose” value (plasma HIV-1 RNA; all dose levels, up to 48 hours) was 0.4±0.2 log10 and 0.42±0.2 log10, the “mean reduction of viral load after a single oral dose” value (plasma HIV-1 RNA; various dosage levels, 24 and 48 hours) was “approximately 40%” and the “Intracellular [Nuc-PPP] in patients (target)” value [9] was 0.5 µM.
